Measurements taken from BindingDB's records for doi:10.1002/cbic.200400099 (Technische UniversitÄT Braunschweig, 2005).

Tests used:
Assay in all cases: Kinase Assay
Conditions in all cases: pH 7.5; 30 °C
[1] = target: Cyclin-dependent kinase 1 (Homo sapiens, UniProt P06493)
Excerpt: (§1) Kinase activity assay using GSK-3beta, CDK1/cyclin B and CDK5/p25.

[2] = target: Cyclin-dependent kinase 5 (Homo sapiens, UniProt Q00535)
Excerpt: as §1

[3] = target: Glycogen synthase kinase-3 beta (Homo sapiens, UniProt P49841)
Chain of Glycogen synthase kinase-3 beta (P49841 whole entry): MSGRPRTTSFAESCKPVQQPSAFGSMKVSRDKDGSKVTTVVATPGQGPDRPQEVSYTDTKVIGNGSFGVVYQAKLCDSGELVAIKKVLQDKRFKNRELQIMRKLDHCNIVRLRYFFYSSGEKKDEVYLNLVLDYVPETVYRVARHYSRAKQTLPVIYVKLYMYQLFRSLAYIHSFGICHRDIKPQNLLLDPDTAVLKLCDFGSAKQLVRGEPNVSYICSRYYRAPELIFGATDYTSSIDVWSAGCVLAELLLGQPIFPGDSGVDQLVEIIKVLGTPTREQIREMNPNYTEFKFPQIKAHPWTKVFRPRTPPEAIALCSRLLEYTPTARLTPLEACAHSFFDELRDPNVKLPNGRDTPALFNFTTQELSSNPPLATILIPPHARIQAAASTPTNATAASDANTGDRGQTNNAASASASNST
Excerpt: as §1

Chain of Cyclin-dependent kinase 5 (Q00535 whole entry): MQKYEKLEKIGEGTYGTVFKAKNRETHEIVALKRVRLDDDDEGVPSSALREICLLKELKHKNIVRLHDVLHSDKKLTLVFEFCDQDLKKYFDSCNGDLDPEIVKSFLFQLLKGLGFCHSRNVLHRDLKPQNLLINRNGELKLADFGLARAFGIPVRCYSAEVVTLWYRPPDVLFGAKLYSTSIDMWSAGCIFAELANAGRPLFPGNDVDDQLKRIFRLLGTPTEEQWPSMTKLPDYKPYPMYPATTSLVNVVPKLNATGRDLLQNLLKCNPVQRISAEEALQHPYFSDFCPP
Chain of Cyclin-dependent kinase 1 (P06493 whole entry): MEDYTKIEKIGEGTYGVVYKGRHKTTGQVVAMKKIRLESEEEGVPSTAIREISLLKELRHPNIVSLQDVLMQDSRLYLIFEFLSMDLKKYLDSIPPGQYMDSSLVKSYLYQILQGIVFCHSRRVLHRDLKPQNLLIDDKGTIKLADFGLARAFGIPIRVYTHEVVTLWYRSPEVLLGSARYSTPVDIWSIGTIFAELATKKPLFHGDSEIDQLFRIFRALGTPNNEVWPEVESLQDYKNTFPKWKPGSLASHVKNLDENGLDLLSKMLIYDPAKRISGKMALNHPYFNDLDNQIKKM

Structure (SMILES) | IC50 [1] [µM] | IC50 [2] [µM] | IC50 [3] [µM]
O=C(O)CCc1ccc2c(c1)-c1[nH]c3ccc([N+](=O)[O-])cc3c1CC(=O)N2 [Alsterpaullone derivative, 5] | 0.025 | 0.08 | 0.0065
N#CCCc1ccc2c(c1)-c1[nH]c3ccc([N+](=O)[O-])cc3c1CC(=O)N2 | 0.00023 | 0.03 | 0.0008
NCCCCc1ccc2c(c1)-c1[nH]c3ccc([N+](=O)[O-])cc3c1CC(=O)N2 [Alsterpaullone derivative, 3] | 0.08 | 0.07 | 0.006

Continued by falling IC50 [1], values first:

IC50 [1] [µM] | IC50 [2] [µM] | IC50 [3] [µM] | Structure (SMILES)
0.1 | 0.25 | 0.034 | COC(=O)CCc1ccc2c(c1)-c1[nH]c3ccc([N+](=O)[O-])cc3c1CC(=O)N2 [Alsterpaullone derivative, 6]
0.027 | 0.023 | 0.0025 | NCCCc1ccc2c(c1)-c1[nH]c3ccc([N+](=O)[O-])cc3c1CC(=O)N2 [Alsterpaullone derivative, 4]
